{"source": "patent US20130090334A1", "about": "“AZABENZOXAZINE DERIVATIVES AS CRAC MODULATORS” (Hoffmann-La Roche Inc, priority 2011, published 2013)", "data": [{"system": "Jurkat cell", "assay": "Jurkat IL-2 Production Assay", "type": "cell-based", "settings": "Homo sapiens, serum condition (1% FBS/PHA or 30% FBS/PMA-ionomycin) not specified", "method": "Jurkat IL-2 Production Assay\nCell: Jurkat cell (ATCC) was grown in RPMI 1640 with 10% FBS and 1% penicillin/streptomycin. The cell density was kept at 1.2˜18×10^6/mL in culture flask before seeding into culture plate, and the cell density in the plate was 0.5×10^6/200 μL/well.\nCulture media: RPMI 1640 with 1% FBS or 30% FBS for high serum assay.\nTest compound: serial dilution was done in 100% DMSO, and intermediate dilution was done with RPMI 1640 medium with 1% FBS. The DMSO final concentration in culture well was 0.25%.\nStimulant: PHA (Sigma#L9017-10MG) was used for the assay with 1% F/BS in culture medium, and added after 10 minutes exposure of cell to compound/DMSO. The PHA final concentration in culture well was 5 μg/mL. PMA (Sigma#P-8139 5MG)/Ionomycin (Sigma# I0634-5MG) was used for the assay with 30% FBS in culture medium, and added at same time point as the 1% FBS culture assay. The final concentration of PMA was […], and lonomycin final concentration was 500 ng/mL.\nIncubation: at 37° C. with 5% CO2 and 95% humidity for 18 h˜20 h.\nIC50: IC50 was calculated with the data analysis software XLfit4, General Pharmacology model 251.", "units": {"IC50": "nM"}, "values": [{"smiles": "CCn1nc(C(F)(F)F)cc1-c1cnc2c(c1)OCC(c1c(F)cccc1F)N2", "note": "(stereo not shown) [Example 1, 3-(2,6-Difluoro-phenyl)-7-(2-ethyl-5-trifluoromethyl-2H-pyrazol-3-yl)-3,4-dihydro-2H-pyrido[3,2-b][1,4]oxazine]", "IC50": 140}]}, {"system": "human whole blood", "assay": "Human Whole Blood (HWB) Assay, inhibition of T cell IL-2 production", "type": "cell-based", "settings": "IL-2 in plasma, human whole blood stimulated with 10 μM Thapsigargin overnight, AlphaLISA", "method": "Human Whole Blood (HWB) Assay\nInhibition of T cell IL-2 production CRAC compounds were tested in human whole blood from normal donors. 200 μl of human whole blood was aliquoted into each well of a round bottom 96 well plate. Concentration-response curves were generated for test compounds and CsA (as controls) by performing serial dilutions of the compounds and incubating each concentration in a single well for 30 min (experiment was performed in triplicate). Following incubation, the blood was stimulated with 10 μM Thapsigargin (SIGMA) overnight at 37° C. IL-2 concentrations in the plasma were determined by AlphaLISA IL-2 assay (Perkin Elmer). Data analysis was performed using GraphPad PRISM5.", "units": {"IC50": "nM"}, "values": [{"smiles": "Cc1ccc(-c2ncco2)cc1-c1cnc2c(c1)OCC(c1c(F)cccc1F)N2", "note": "(stereo not shown) [Example 7, 3-(2,6-Difluoro-phenyl)-7-(2-methyl-5-oxazol-2-yl-phenyl)-3,4-dihydro-2H-pyrido[3,2-b][1,4]oxazine]", "IC50": 8160}, {"smiles": "CCn1nc(-c2cnccn2)cc1-c1cnc2c(c1)OCC(c1c(F)cccc1F)N2", "note": "(stereo not shown) [Example 3, 3-(2,6-Difluoro-phenyl)-7-(2-ethyl-5-pyrazin-2-yl-2H-pyrazol-3-yl)-3,4-dihydro-2H-pyrido[3,2-b][1,4]oxazine]", "IC50": 2400}, {"smiles": "Cc1sc(-c2ccccn2)nc1-c1cnc2c(c1)OCC(c1c(F)cccc1F)N2", "note": "(stereo not shown) [Example 4, 3-(2,6-Difluoro-phenyl)-7-(5-methyl-2-pyridin-2-yl-thiazol-4-yl)-3,4-dihydro-2H-pyrido[3,2-b][1,4]oxazine]", "IC50": 6300}, {"smiles": "Cc1sc(-c2ccncc2)nc1-c1cnc2c(c1)OCC(c1c(F)cccc1F)N2", "note": "(stereo not shown) [Example 6, 3-(2,6-Difluoro-phenyl)-7-(5-methyl-2-pyridin-4-yl-thiazol-4-yl)-3,4-dihydro-2H-pyrido[3,2-b][1,4]oxazine]", "IC50": 4520}, {"smiles": "CCn1nc(-c2cccnc2)cc1-c1cnc2c(c1)OCC(c1c(F)cccc1F)N2", "note": "(stereo not shown) [Example 2, 3-(2,6-Difluoro-phenyl)-7-(2-ethyl-5-pyridin-3-yl-2H-pyrazol-3-yl)-3,4-dihydro-2H-pyrido[3,2-b][1,4]oxazine]", "IC50": 2680}, {"smiles": "CCc1sc(-c2cccnc2)nc1-c1cnc2c(c1)OCC(c1c(F)cccc1F)N2", "note": "(stereo not shown) [Example 5, 3-(2,6-Difluoro-phenyl)-7-(5-ethyl-2-pyridin-3-yl-thiazol-4-yl)-3,4-dihydro-2H-pyrido[3,2-b][1,4]oxazine]", "IC50": 560}]}]}
